This test has as its target TRKA (Homo sapiens (Human), UniProt P04629). Nature of the test: Isolated TRK enzyme assay (HTRF KinEASE-TK), TRKA. The format is biochemical. As to conditions: read-out: Trka enzyme (IC50). (TR-FRET usually uses a lanthanide donor and a delayed reading to cut background.)

The structures appear in SMILES notation.

TRKA, sequence (P04629 441-796): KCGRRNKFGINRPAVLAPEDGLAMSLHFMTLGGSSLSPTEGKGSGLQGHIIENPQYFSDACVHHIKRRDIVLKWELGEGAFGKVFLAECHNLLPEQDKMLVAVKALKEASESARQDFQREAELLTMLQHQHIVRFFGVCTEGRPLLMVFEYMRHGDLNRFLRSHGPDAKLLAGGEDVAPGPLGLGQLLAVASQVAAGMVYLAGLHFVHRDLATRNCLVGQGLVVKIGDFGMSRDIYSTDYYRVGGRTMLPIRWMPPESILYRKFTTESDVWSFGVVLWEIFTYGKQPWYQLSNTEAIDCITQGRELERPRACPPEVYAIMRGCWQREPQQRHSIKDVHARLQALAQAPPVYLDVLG

Usually IC50 stands for the concentration that inhibits the measured activity by half. Consider `CC(C)n1cc(C(=O)c2cncc(NC(=O)COc3ccccc3C#N)c2)c2cncnc21` [Example 347, 2-(2-cyanophenoxy)-N-(5-{[7-(propan-2-yl)-7H-pyrrolo[2,3-d]pyrimidin-5-yl]carbonyl}pyridin-3-yl)acetamide], for which the IC50 was 155 nM.

For `CC(C)n1cc(C(=O)c2cncc(NC(=O)COc3ccc(OC(F)(F)F)cc3)c2)c2cncnc21` [Example 348, N-(5-{[7-(propan-2-yl)-7H-pyrrolo[2,3-d]pyrimidin-5-yl]carbonyl}pyridin-3-yl)-2-[4-(trifluoromethoxy)phenoxy]acetamide], the IC50 was determined as 36.6 nM.

Consider `CC(C)n1cc(C(=O)c2cncc(NC(=O)C(N)c3ccc(Cl)cc3)c2)c2cncnc21` (stereo not drawn) [Example 350, 2-amino-2-(4-chlorophenyl)-N-(5-(7-isopropyl-7H-pyrrolo[2,3-d]pyrimidine-5-carbonyl)pyridin-3-yl)acetamide], for which the IC50 turned out to be 153 nM.

Regarding `CC(C)(CO)n1cc(C(=O)c2cncc(NC(=O)Cc3ccc(C#N)cn3)c2)c2cnc(N)nc21` [Example 351, N-{5-[2-Amino-7-(2-hydroxy-1,1-dimethyl-ethyl)-7H-pyrrolo[2,3-d]pyrimidine-5-carbonyl]-pyridin-3-yl}-2-(5-cyano-pyridin-2-yl)-acetamide], the IC50 came to 21.1 nM.

In the case of `CC(C)n1cc(C(=O)c2cncc(NC(=O)Cc3cn(C4CC4)nc3C(F)(F)F)c2)c2cncnc21` [Example 352, 2-(1-Cyclopropyl-3-trifluoromethyl-1H-pyrazol-4-yl)-N-[5-(7-isopropyl-7H-pyrrolo[2,3-d]pyrimidine-5-carbonyl)-pyridin-3-yl]-acetamide], the IC50 worked out at 62.6 nM.

Consider `CC(C)n1cc(C(=O)c2cncc(NC(=O)Cn3cnc(Cl)c3Cl)c2)c2cncnc21` [Example 355, 2-(4,5-Dichloro-imidazol-1-yl)-N-[5-(7-isopropyl-7H-pyrrolo[2,3-d]pyrimidine-5-carbonyl)-pyridin-3-yl]-acetamide], for which the IC50 worked out at 302 nM.

As to `Cc1cc(C(F)F)n2nc(C(=O)Nc3cncc(C(=O)c4cn(C(C)C)c5ncncc45)c3)nc2n1` [Example 356, 7-Difluoromethyl-5-methyl-[1,2,4]triazolo[1,5-a]pyrimidine-2-carboxylic acid [5-(7-isopropyl-7H-pyrrolo[2,3-d]pyrimidine-5-carbonyl)-pyridin-3-yl]-amide], the concentration for half-maximal inhibition (IC50) amounted to 56.3 nM.

Take `Cc1nc(C)n(CC(=O)Nc2cncc(C(=O)c3cn(C(C)C)c4ncncc34)c2)n1` [Example 358, 2-(3,5-Dimethyl-1,2,4-triazol-1-yl)-N-[5-(7-isopropyl-7H-pyrrolo[2,3-d]pyrimidine-5-carbonyl)-pyridin-3-yl]-acetamide]: the IC50 was determined as 9800 nM.

As to `Cc1nccn1CC(=O)Nc1cncc(C(=O)c2cn(C(C)C)c3ncncc23)c1` [Example 359, N-[5-(7-Isopropyl-7H-pyrrolo[2,3-d]pyrimidine-5-carbonyl)-pyridin-3-yl]-2-(2-methyl-imidazol-1-yl)-acetamide], the IC50 came out at 9800 nM.

On to `CC(C)n1cc(C(=O)c2cncc(NC(=O)Cc3cn4ccsc4n3)c2)c2cncnc21` [Example 360, 2-Imidazo[2,1-b]thiazol-6-yl-N-[5-(7-isopropyl-7H-pyrrolo[2,3-d]pyrimidine-5-carbonyl)-pyridin-3-yl]-acetamide], for which the IC50 is 956 nM.

With `CC(C)n1cc(C(=O)c2cncc(NC(=O)Cc3nnc(O)c4ccccc34)c2)c2cncnc21` [Example 361, 2-(4-Hydroxy-phthalazin-1-yl)-N-[5-(7-isopropyl-7H-pyrrolo[2,3-d]pyrimidine-5-carbonyl)-pyridin-3-yl]-acetamide], the IC50 came to 7640 nM.

Consider `Cc1sc2nc(CC(=O)Nc3cncc(C(=O)c4cn(C(C)C)c5ncncc45)c3)cn2c1C` [Example 362, 2-(2,3-Dimethyl-imidazo[2,1-b]thiazol-6-yl)-N-[5-(7-isopropyl-7H-pyrrolo[2,3-d]pyrimidine-5-carbonyl)-pyridin-3-yl]-acetamide], for which the IC50 stood at 1910 nM.

Values taken from US8846698B2, “Pyrrolo[2,3-d]pyrimidine tropomysin-related kinase inhibitors” (Pfizer Limited, priority 2011, dated 2014).
